Data set [1] is described as follows: Cytotoxicity against human SGC7901 cells assessed as reduction in cell viability after 48 hrs by MTT assay. The following applies: SGC-7901, 48 h. The class given is functional, cell-based.
The nature of data set [2]: Cytotoxicity against human SKOV3 cells assessed as reduction in cell viability after 48 hrs by MTT assay. The data set is classed as functional, cell-based. The settings on record: SK-OV-3, 48 h. (In general: Tetrazolium assays rely on reduction of a dye to a coloured formazan, in cell work by metabolically active cells.)
Data set [3] in a line: Cytotoxicity against human HCT116 cells assessed as reduction in cell viability after 48 hrs by MTT assay. The class given is functional, cell-based. The following applies: HCT-116, 48 h.
Data set [4] can be described thus: Cytotoxicity against human SMMC7721 cells assessed as reduction in cell viability after 48 hrs by MTT assay. The class given is functional, cell-based. The following applies: SMMC-7721, 48 h.
The subject of data set [5] is Mus musculus. In words: Toxicity in mouse assessed as death time administered as submicron emulsions through caudal vein injection dosed daily. The class given is organism-based. The settings on record: in vivo, iv.
A short description of data set [6]: Cytotoxicity against human U251 cells assessed as reduction in cell viability after 48 hrs by MTT assay. The class given is functional, cell-based. The following applies: U-251, 48 h.
Data set [7] in a line: Cytotoxicity against human NCI-H460 cells assessed as reduction in cell viability after 48 hrs by MTT assay. The following applies: NCI-H460, 48 h. The class given is functional, cell-based.
The nature of data set [8]: Cytotoxicity against human U251 cells assessed as reduction in cell viability after 24 hrs by MTT assay. The data set is classed as functional, cell-based. The following applies: U-251, 24 h.
The nature of data set [9]: Cytotoxicity against human NCI-H460 cells assessed as reduction in cell viability after 24 hrs by MTT assay. The settings on record: NCI-H460, 24 h. The data set is classed as functional, cell-based.
The subject of data set [10] is Mus musculus. The data set can be described thus: Toxicity in nude mouse xenografted with […] cells assessed as body weight level at 6 mg/kg administered as submicron emulsions through caudal vein injection dosed every 3 days for 14 days (reference value: 42.63 +/- 5.81 g). The class given is organism-based. The settings on record: in vivo, iv. Background: Xenograft models place foreign cells or tissue in a host animal.

Data set [11] is described as follows: Antitumor activity against H22 cells xenografted in nude mouse assessed as tumor growth inhibition at 6 mg/kg administered as submicron emulsions through caudal vein injection dosed every 3 days for 14 days. The data set is classed as functional. The settings on record: read-out: TGI.
Data set [12] in a line: Toxicity in mouse assessed as tolerance dose administered as submicron emulsions through caudal vein injection dosed daily for 7 days. The data set is classed as organism-based. The following applies: in vivo, iv, read-out: Activity.
The nature of data set [13]: Cytotoxicity against human SKOV3 cells assessed as reduction in cell viability after 24 hrs by MTT assay. The class given is functional, cell-based. The following applies: SK-OV-3, 24 h.
A short description of data set [14]: Cytotoxicity against human SGC7901 cells assessed as reduction in cell viability after 24 hrs by MTT assay. The data set is classed as functional, cell-based. The settings on record: SGC-7901, 24 h.
Data set [15] can be described thus: Cytotoxicity against human SMMC7721 cells assessed as reduction in cell viability after 24 hrs by MTT assay. The data set is classed as functional, cell-based. The settings on record: SMMC-7721, 24 h.
Data set [16] can be described thus: Cytotoxicity against human HCT116 cells assessed as reduction in cell viability after 24 hrs by MTT assay. The data set is classed as functional, cell-based. The settings on record: HCT-116, 24 h.
Data set [17] has as its system Mus musculus. In words: Toxicity in nude mouse xenografted with […] cells assessed as induction of mouse mortality at 20 mg/kg administered as submicron emulsions through caudal vein injection dosed daily for 14 days. The class given is organism-based. The settings on record: in vivo, iv, 336 h.
Data set [18] deals with Mus musculus. In words: Toxicity in nude mouse xenografted with […] cells assessed as body weight level at 20 mg/kg administered as submicron emulsions through caudal vein injection dosed daily for 14 days (reference value: 42.63 +/- 5.81 g). The settings on record: in vivo, iv, 336 h. The class given is organism-based.
For data set [19], the system named is Mus musculus. The data set can be described thus: Toxicity in nude mouse xenografted with […] cells assessed as induction of mouse mortality at 10 mg/kg administered as submicron emulsions through caudal vein injection dosed daily for 14 days. The data set is classed as organism-based. The settings on record: in vivo, iv, 336 h.
The nature of data set [20]: Antitumor activity against H22 cells xenografted in nude mouse assessed as tumor growth inhibition at 10 mg/kg administered as submicron emulsions through caudal vein injection dosed daily for 14 days. The data set is classed as functional. The settings on record: H22, 336 h; read-out: TGI.
Data set [21] in a line: Antitumor activity against H22 cells xenografted in nude mouse assessed as tumor growth inhibition at 20 mg/kg administered as submicron emulsions through caudal vein injection dosed daily for 14 days. The settings on record: H22, 336 h; read-out: TGI. The data set is classed as functional.
The test system of data set [22] is Mus musculus. The data set can be described thus: Toxicity in nude mouse xenografted with […] cells assessed as body weight level at 10 mg/kg administered as submicron emulsions through caudal vein injection dosed daily for 14 days (reference value: 42.63 +/- 5.81 g). The following applies: in vivo, iv, 336 h. The data set is classed as organism-based.

Experimental findings from ChEMBL document CHEMBL3856255, “Synthesis and biological evaluation of Hederacolchiside A1 derivatives as anticancer agents” (Bioorg Med Chem Lett, 2016) are described below.

Take `C[C@@H]1O[C@@H](O[C@H]2[C@H](O[C@H]3CC[C@]4(C)[C@H]5CC=C6[C@@H]7CC(C)(C)CC[C@]7(C(=O)OCC(=O)O)CC[C@@]6(C)[C@]5(C)CC[C@H]4C3(C)C)OC[C@H](O[C@@H]3O[C@H](CO)[C@@H](O)[C@H](O)[C@H]3O)[C@@H]2O)[C@H](O)[C@H](O)[C@H]1O`: the IC50 came out at 3.3 µM in data set [1]; 2.7 µM in data set [2]; 3.9 µM in data set [3]; 2.2 µM in data set [4]; 2 µM in [6]; 1.8 µM in data set [7]. The Time in data set [5] turned out to be 7 days.

Turning to `CNC(=O)[C@]12CCC(C)(C)C[C@H]1C1=CC[C@@H]3[C@@]4(C)CC[C@H](O[C@@H]5OC[C@H](O[C@@H]6O[C@H](CO)[C@@H](O)[C@H](O)[C@H]6O)[C@H](O)[C@H]5O[C@@H]5O[C@@H](C)[C@H](O)[C@@H](O)[C@H]5O)C(C)(C)[C@@H]4CC[C@@]3(C)[C@]1(C)CC2`, the half-maximal inhibitory concentration (IC50) in [1] is 55.8 µM; in [2] it was over 100 µM; in [3], 41.9 µM; in data set [4] it was over 100 µM; in data set [6], 46.7 µM; in [7], over 100 µM.

Consider `C[C@@H]1O[C@@H](O[C@H]2[C@H](O[C@H]3CC[C@]4(C)[C@H]5CC=C6[C@@H]7CC(C)(C)CC[C@]7(C(=O)O)CC[C@@]6(C)[C@]5(C)CC[C@H]4C3(C)C)OC[C@H](O[C@@H]3O[C@H](CO)[C@@H](O)[C@H](O)[C@H]3O)[C@@H]2O)[C@H](O)[C@H](O)[C@H]1O` [HEDERACOLCHISIDE A1], for which the IC50 in data set [8] was determined as 2.2 µM; in data set [1], 1.7 µM; in [9] it was 3.7 µM; in data set [2] it was 3.3 µM; in data set [3] it was 8.4 µM; in data set [4], 2.8 µM. For the same compound, the IC50 in data set [13] was found to be 1.3 µM; in data set [14] it was 1.7 µM; in data set [15], 2.8 µM; in data set [6], 2.2 µM; in data set [16], 8.4 µM; in [7], 3.7 µM. The Activity in [10] came to 41.76 g. The inhibition in vivo at 6 mg/kg in [11] amounted to 47.5%. The Time in data set [5] was under 0.042 days. Also, in data set [12], the MTD at 168 h is under 8 mg/kg.

In the case of `COC(=O)[C@]12CCC(C)(C)C[C@H]1C1=CC[C@@H]3[C@@]4(C)CC[C@H](O[C@@H]5OC[C@H](O[C@@H]6O[C@H](CO)[C@@H](O)[C@H](O)[C@H]6O)[C@H](O)[C@H]5O[C@@H]5O[C@@H](C)[C@H](O)[C@@H](O)[C@H]5O)C(C)(C)[C@@H]4CC[C@@]3(C)[C@]1(C)CC2`, the Activity result in [17] was “Non-Toxic”; in data set [18], 39.74 g; in data set [19] it was “Non-Toxic”; in data set [22] it was 41.05 g. Moreover, the IC50 amounted to 1.7 µM in data set [1]; 3.1 µM in data set [2]; 4.6 µM in data set [3]; 3.5 µM in [4]; 1.1 µM in data set [6]; 1.3 µM in data set [7]. The inhibition in vivo at 10 mg/kg in [20] amounted to 36.2%. Also, the Time in [5] was over 7 days. The inhibition in vivo at 20 mg/kg in [21] was 46.8%.

As to `CCOC(=O)[C@]12CCC(C)(C)C[C@H]1C1=CC[C@@H]3[C@@]4(C)CC[C@H](O[C@@H]5OC[C@H](O[C@@H]6O[C@H](CO)[C@@H](O)[C@H](O)[C@H]6O)[C@H](O)[C@H]5O[C@@H]5O[C@@H](C)[C@H](O)[C@@H](O)[C@H]5O)C(C)(C)[C@@H]4CC[C@@]3(C)[C@]1(C)CC2`, the IC50 came to 4.9 µM in data set [1]; 5.8 µM in [2]; 5.3 µM in [3]; 3.5 µM in data set [4]; 1.6 µM in data set [6]; 2.7 µM in data set [7].

In the case of `C[C@@H]1O[C@@H](O[C@H]2[C@H](O[C@H]3CC[C@]4(C)[C@H]5CC=C6[C@@H]7CC(C)(C)CC[C@]7(C(=O)OCCCO)CC[C@@]6(C)[C@]5(C)CC[C@H]4C3(C)C)OC[C@H](O[C@@H]3O[C@H](CO)[C@@H](O)[C@H](O)[C@H]3O)[C@@H]2O)[C@H](O)[C@H](O)[C@H]1O`, the half-inhibitory concentration (IC50) in data set [1] was 47.3 µM; in data set [2] it was over 100 µM; in data set [3] it was 39.2 µM; in data set [4], over 100 µM; in data set [6] it was 43.5 µM; in [7], 55.7 µM.

`C[C@@H]1O[C@@H](O[C@H]2[C@H](O[C@H]3CC[C@]4(C)[C@H]5CC=C6[C@@H]7CC(C)(C)CC[C@]7(C(=O)OCCCC(=O)O)CC[C@@]6(C)[C@]5(C)CC[C@H]4C3(C)C)OC[C@H](O[C@@H]3O[C@H](CO)[C@@H](O)[C@H](O)[C@H]3O)[C@@H]2O)[C@H](O)[C@H](O)[C@H]1O`: the IC50 in data set [1] worked out at 7.4 µM; in data set [2], 9.6 µM; in [3], 20.2 µM; in [4], 8.3 µM; in data set [6], 11.7 µM; in data set [7], 14.1 µM.

`CCCOC(=O)[C@]12CCC(C)(C)C[C@H]1C1=CC[C@@H]3[C@@]4(C)CC[C@H](O[C@@H]5OC[C@H](O[C@@H]6O[C@H](CO)[C@@H](O)[C@H](O)[C@H]6O)[C@H](O)[C@H]5O[C@@H]5O[C@@H](C)[C@H](O)[C@@H](O)[C@H]5O)C(C)(C)[C@@H]4CC[C@@]3(C)[C@]1(C)CC2`: the concentration for half-maximal inhibition (IC50) in [1] was determined as 11.9 µM; in data set [2] it was 12.3 µM; in data set [3], 9.7 µM; in data set [4], 4.7 µM; in data set [6] it was 1.8 µM; in data set [7], 8.3 µM.

Consider `C[C@@H]1O[C@@H](O[C@H]2[C@H](O[C@H]3CC[C@]4(C)[C@H]5CC=C6[C@@H]7CC(C)(C)CC[C@]7(C(=O)OCCC(=O)O)CC[C@@]6(C)[C@]5(C)CC[C@H]4C3(C)C)OC[C@H](O[C@@H]3O[C@H](CO)[C@@H](O)[C@H](O)[C@H]3O)[C@@H]2O)[C@H](O)[C@H](O)[C@H]1O`, for which the IC50 was found to be 6.5 µM in data set [1]; 5.4 µM in data set [2]; 11.1 µM in data set [3]; 2.7 µM in data set [4]; 4.6 µM in data set [6]; 9.8 µM in data set [7].

Consider `C[C@@H]1O[C@@H](O[C@H]2[C@H](O[C@H]3CC[C@]4(C)[C@H]5CC=C6[C@@H]7CC(C)(C)CC[C@]7(C(=O)OCCO)CC[C@@]6(C)[C@]5(C)CC[C@H]4C3(C)C)OC[C@H](O[C@@H]3O[C@H](CO)[C@@H](O)[C@H](O)[C@H]3O)[C@@H]2O)[C@H](O)[C@H](O)[C@H]1O`, for which the IC50 in [1] is 20.6 µM; in [2], 19.7 µM; in [3] it was 25.6 µM; in [4], 35.6 µM; in data set [6], 13.4 µM; in [7] it was 46.7 µM.

In general, IC50 refers to the concentration needed to halve the response being measured.
